According to patent US20130040944A1, “MGLUR4 ALLOSTERIC POTENTIATORS, COMPOSITIONS, AND METHODS OF TREATING NEUROLOGICAL DYSFUNCTION” (VANDERBILT UNIVERSITY, priority 2009, published 2013):

What follows are compounds tested against human mGluR4 (Homo sapiens, UniProt Q14833) (assay: potentiation of human mGluR4 in transfected CHO cells, Ca2+-sensitive dye fluorescence, EC20 agonist). Conditions: CHO, read-out: % Glu Max.
Sequence of human mGluR4 (Q14833 33-912): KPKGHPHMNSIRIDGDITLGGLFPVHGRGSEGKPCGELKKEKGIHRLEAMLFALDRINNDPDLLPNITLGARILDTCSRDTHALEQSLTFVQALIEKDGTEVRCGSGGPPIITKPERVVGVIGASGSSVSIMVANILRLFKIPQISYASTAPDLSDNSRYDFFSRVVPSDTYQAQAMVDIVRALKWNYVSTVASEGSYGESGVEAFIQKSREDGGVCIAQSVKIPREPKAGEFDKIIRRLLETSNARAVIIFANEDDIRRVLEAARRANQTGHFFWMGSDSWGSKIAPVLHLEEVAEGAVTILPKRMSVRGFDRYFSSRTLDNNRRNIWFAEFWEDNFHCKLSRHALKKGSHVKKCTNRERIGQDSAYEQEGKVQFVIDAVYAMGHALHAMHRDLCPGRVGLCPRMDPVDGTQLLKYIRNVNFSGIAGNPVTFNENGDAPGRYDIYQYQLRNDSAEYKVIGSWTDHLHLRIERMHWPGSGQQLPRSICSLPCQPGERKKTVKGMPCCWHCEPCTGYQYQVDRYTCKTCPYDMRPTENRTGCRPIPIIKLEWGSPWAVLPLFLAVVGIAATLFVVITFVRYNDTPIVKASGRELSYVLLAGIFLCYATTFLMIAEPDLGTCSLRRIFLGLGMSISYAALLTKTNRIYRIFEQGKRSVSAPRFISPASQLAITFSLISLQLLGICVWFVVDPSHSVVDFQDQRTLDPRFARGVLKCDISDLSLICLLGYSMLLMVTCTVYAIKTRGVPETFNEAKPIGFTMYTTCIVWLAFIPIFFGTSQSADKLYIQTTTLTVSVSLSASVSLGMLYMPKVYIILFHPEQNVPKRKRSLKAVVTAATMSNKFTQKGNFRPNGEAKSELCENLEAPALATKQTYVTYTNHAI

Row | Emax [%] | SMILES
1 | 35 | O=C(Nc1ccn(S(=O)(=O)Cc2ccccc2)c1)c1cc(F)ccn1 [Example 39, N-(1-(benzylsulfonyl)-1H-pyrrol-3-yl)-4-fluoropicolinamide]
2 | 76 | O=C(Nc1ccn(S(=O)(=O)Cc2ccccc2)c1)c1cccc(F)n1 [Example 41, N-(1-(benzylsulfonyl)-1H-pyrrol-3-yl)-6-fluoropicolinamide]
3 | 101 | O=C(Nc1ccn(S(=O)(=O)c2ccccc2C(F)(F)F)c1)c1ccccn1 [Example 10]
4 | 91 | O=C(Nc1ccn(S(=O)(=O)c2ccccc2Cl)c1)c1ccccn1 [Example 11]
5 | 159 | O=C(Nc1ccn(S(=O)(=O)Cc2ccc(Cl)c(Cl)c2)c1)c1ccccn1 [Example 34]
6 | 58 | O=C(Nc1ccn(S(=O)(=O)c2ccc3ccccc3c2)c1)c1ccccn1 [Example 36]
7 | 275 | O=C(Nc1ccn(S(=O)(=O)Cc2ccccc2)c1)c1ccccn1 [Example 2, N-(1-(benzylsulfonyl)-1H-pyrrol-3-yl)picolinamide]
8 | 67 | Cc1ccccc1S(=O)(=O)n1ccc(NC(=O)c2ccccn2)c1 [Example 9]
9 | 55 | O=C(Nc1ccn(S(=O)(=O)Cc2ccccc2)c1)c1ccccc1 [Example 6, N-(1-(benzylsulfonyl)-1H-pyrrol-3-yl)benzamide]

Same assay, conditions: EC50 (nM), potentiation of EC20 agonist response; Table I

Row | EC50 [nM] | SMILES
10 | 369 | O=C(Nc1ccn(S(=O)(=O)Cc2ccccc2)c1)c1cc(F)ccn1 [Example 39, N-(1-(benzylsulfonyl)-1H-pyrrol-3-yl)-4-fluoropicolinamide]
11 | 574 | O=C(Nc1ccn(S(=O)(=O)Cc2ccccc2)c1)c1cccc(F)n1 [Example 41, N-(1-(benzylsulfonyl)-1H-pyrrol-3-yl)-6-fluoropicolinamide]
12 | 526 | O=C(Nc1ccn(S(=O)(=O)c2ccccc2C(F)(F)F)c1)c1ccccn1 [Example 10]
13 | 222 | O=C(Nc1ccn(S(=O)(=O)c2ccccc2Cl)c1)c1ccccn1 [Example 11]
14 | > 10000 | O=C(Nc1ccn(S(=O)(=O)c2ccc3ccccc3c2)c1)c1ccccn1 [Example 36]
15 | 562 | O=C(Nc1ccn(S(=O)(=O)Cc2ccccc2)c1)c1ccccn1 [Example 2, N-(1-(benzylsulfonyl)-1H-pyrrol-3-yl)picolinamide]
16 | 198 | Cc1ccccc1S(=O)(=O)n1ccc(NC(=O)c2ccccn2)c1 [Example 9]
17 | 951 | O=C(Nc1ccn(S(=O)(=O)Cc2ccccc2)c1)c1ccccc1 [Example 6, N-(1-(benzylsulfonyl)-1H-pyrrol-3-yl)benzamide]

Same assay, conditions: hEC50, human mGluR4 potentiation; unit inferred

Row | EC50 [nM] | SMILES
18 | 6380 | O=C(O)c1ccc(S(=O)(=O)n2ccc(NC(=O)c3ccccn3)c2)cc1 [Example 155, 4-((3-(picolinamido)-1H-pyrrol-1-yl)sulfonyl)benzoic acid]
19 | 2680 | O=C(Nc1ccn(S(=O)(=O)c2ccccc2)c1)c1nccs1 [Example 50, N-(1-(phenylsulfonyl)-1H-pyrrol-3-yl)thiazole-2-carboxamide]
20 | 931 | Cn1ccc(S(=O)(=O)n2ccc(NC(=O)c3ccccn3)c2)n1 [Example 159, N-(1-((1-methyl-1H-pyrazol-3-yl)sulfonyl)-1H-pyrrol-3-yl)picolinamide]
21 | 88.7 | Cc1ccc(S(=O)(=O)n2ccc(NC(=O)c3ccccn3)c2)s1 [Example 135, N-(1-((5-methylthiophen-2-yl)sulfonyl)-1H-pyrrol-3-yl)picolinamide]
22 | 1210 | O=C(Nc1ccn(S(=O)(=O)c2ccc(CO)cc2)c1)c1ccccn1 [Example 161, N-(1-((4-(hydroxymethyl)phenyl)sulfonyl)-1H-pyrrol-3-yl)picolinamide]
23 | 280 | Cc1ccc(CS(=O)(=O)n2ccc(NC(=O)c3ccccn3)c2)cc1 [Example 47, N-(1-((4-methylbenzyl)sulfonyl)-1H-pyrrol-3-yl)picolinamide]
24 | 3240 | O=C(Nc1ccn(S(=O)(=O)c2ccc(OC(F)F)cc2)c1)c1ccco1 [Example 163, N-(1-((4-(difluoromethoxy)phenyl)sulfonyl)-1H-pyrrol-3-yl)furan-2-carboxamide]
25 | 220 | N#Cc1ccc(S(=O)(=O)n2ccc(NC(=O)c3ccccn3)c2)cc1 [Example 130, N-(1-((4-cyanophenyl)sulfonyl)-1H-pyrrol-3-yl)picolinamide]
26 | 8320 | Cc1noc(C)c1S(=O)(=O)n1ccc(NC(=O)c2ccccn2)c1 [Example 141, N-(1-((3,5-dimethylisoxazol-4-yl)sulfonyl)-1H-pyrrol-3-yl)picolinamide]
27 | 1940 | O=C(Nc1ccn(S(=O)(=O)c2ccc3c(c2)OCO3)c1)c1ccco1 [Example 166, N-(1-(benzo[d][1,3]dioxol-5-ylsulfonyl)-1H-pyrrol-3-yl)furan-2-carboxamide]
28 | 1890 | CC(c1ccc(Cl)cc1)S(=O)(=O)n1ccc(NC(=O)c2ccccn2)c1 (centres unmarked) [Example 109, N-(1-((1-(4-chlorophenyl)ethyl)sulfonyl)-1H-pyrrol-3-yl)picolinamide]
29 | 686 | O=C(Nc1ccn(S(=O)(=O)c2ccco2)c1)c1ccccn1 [Example 123, N-(1-(furan-2-ylsulfonyl)-1H-pyrrol-3-yl)picolinamide]
30 | 346 | Cc1cc(S(=O)(=O)n2ccc(NC(=O)c3ccccn3)c2)c(F)cc1Cl [Example 113, N-(1-((4-chloro-2-fluoro-5-methylphenyl)sulfonyl)-1H-pyrrol-3-yl)picolinamide]
31 | 2120 | COc1ccc(S(=O)(=O)n2ccc(NC(=O)c3ccco3)c2)cn1 [Example 168, N-(1-((6-methoxypyridin-3-yl)sulfonyl)-1H-pyrrol-3-yl)furan-2-carboxamide]
32 | 1490 | O=C(Nc1ccn(S(=O)(=O)c2ccoc2)c1)c1ccccn1 [Example 125, N-(1-(furan-3-ylsulfonyl)-1H-pyrrol-3-yl)picolinamide]
33 | 2760 | O=C(Nc1ccn(S(=O)(=O)Cc2ccccc2)c1)c1nccs1 [Example 63, N-(1-(benzylsulfonyl)-1H-pyrrol-3-yl)thiazole-2-carboxamide]
34 | 640 | O=C(Nc1ccn(S(=O)(=O)c2ccc(F)c(Cl)c2)c1)c1ccccn1 [Example 128, N-(1-((3-chloro-4-fluorophenyl)sulfonyl)-1H-pyrrol-3-yl)picolinamide]
35 | 489 | N#Cc1ccccc1S(=O)(=O)n1ccc(NC(=O)c2ccccn2)c1 [Example 79, N-(1-((2-cyanophenyl)sulfonyl)-1H-pyrrol-3-yl)picolinamide]
36 | 1720 | CC(=O)Oc1ccccc1C(=O)Nc1ccn(S(=O)(=O)c2cccc(C)c2)c1 [Example 54, 2-((1-(m-tolylsulfonyl)-1H-pyrrol-3-yl)carbamoyl)phenyl acetate]
37 | 4020 | O=C(Nc1ccn(S(=O)(=O)c2ccc(C(F)(F)F)c(F)c2)c1)c1ccccn1 [Example 104, N-(1-((3-fluoro-4-(trifluoromethyl)phenyl)sulfonyl)-1H-pyrrol-3-yl)picolinamide]

Row | EC50 [nM] | SMILES
38 | 4790 | Cn1cc(S(=O)(=O)n2ccc(NC(=O)c3ccccn3)c2)cn1 [Example 143, N-(1-((1-methyl-1H-pyrazol-4-yl)sulfonyl)-1H-pyrrol-3-yl)picolinamide]
39 | 153 | O=C(Nc1ccn(S(=O)(=O)Cc2c(F)cccc2F)c1)c1ccccn1 [Example 92, N-(1-((2,6-difluorobenzyl)sulfonyl)-1H-pyrrol-3-yl)picolinamide]
40 | 286 | Cc1c(Cl)cccc1S(=O)(=O)n1ccc(NC(=O)c2ccccn2)c1 [Example 116, N-(1-((3-chloro-2-methylphenyl)sulfonyl)-1H-pyrrol-3-yl)picolinamide]
41 | 144 | O=C(Nc1ccn(S(=O)(=O)Cc2ccc(Br)cc2)c1)c1ccccn1 [Example 70, N-(1-((4-bromobenzyl)sulfonyl)-1H-pyrrol-3-yl)picolinamide]
42 | 243 | O=C(Nc1ccn(S(=O)(=O)c2ccc(Cl)cc2F)c1)c1ccccn1 [Example 138, N-(1-((4-chloro-2-fluorophenyl)sulfonyl)-1H-pyrrol-3-yl)picolinamide]
43 | 133 | CCc1ccc(S(=O)(=O)n2ccc(NC(=O)c3ccccn3)c2)cc1 [Example 122, N-(1-((4-ethylphenyl)sulfonyl)-1H-pyrrol-3-yl)picolinamide]
44 | 343 | O=C(Nc1ccn(S(=O)(=O)Cc2c(F)cccc2F)c1)c1nccs1 [Example 93, N-(1-((2,6-difluorobenzyl)sulfonyl)-1H-pyrrol-3-yl)thiazole-2-carboxamide]
45 | 543 | O=C(Nc1ccn(S(=O)(=O)c2ccc(N3CCCC3=O)cc2)c1)c1ccccn1 [Example 154, N-(1-((4-(2-oxopyrrolidin-1-yl)phenyl)sulfonyl)-1H-pyrrol-3-yl)picolinamide]
46 | 988 | Cc1cccc(Cl)c1S(=O)(=O)n1ccc(NC(=O)c2ccccn2)c1 [Example 76, N-(1-((2-chloro-6-methylphenyl)sulfonyl)-1H-pyrrol-3-yl)picolinamide]
47 | 431 | Cc1ccc(C(=O)Nc2ccn(S(=O)(=O)Cc3ccc(Cl)cc3)c2)nc1 [Example 97, N-(1-((4-chlorobenzyl)sulfonyl)-1H-pyrrol-3-yl)-5-methylpicolinamide]
48 | 2950 | Cc1nc(C)c(S(=O)(=O)n2ccc(NC(=O)c3ccccn3)c2)s1 [Example 127, N-(1-((2,4-dimethylthiazol-5-yl)sulfonyl)-1H-pyrrol-3-yl)picolinamide]
49 | 285 | COC(=O)c1ccc(S(=O)(=O)n2ccc(NC(=O)c3ccccn3)c2)cc1 [Example 153, Methyl 4-((3-(picolinamido)-1H-pyrrol-1-yl)sulfonyl)benzoate]
50 | 767 | O=C(Nc1ccn(S(=O)(=O)Cc2ccccc2Cl)c1)c1nccs1 [Example 52, N-(1-((2-chlorobenzyl)sulfonyl)-1H-pyrrol-3-yl)thiazole-2-carboxamide]
51 | 178 | O=C(Nc1ccn(S(=O)(=O)c2cccc(F)c2)c1)c1ccccn1 [Example 90, N-(1-((3-fluorophenyl)sulfonyl)-1H-pyrrol-3-yl)picolinamide]
52 | 5120 | O=C(Nc1ccn(S(=O)(=O)c2ccc(Cl)c(C(F)(F)F)c2)c1)c1ccccn1 [Example 102, N-(1-((4-chloro-3-(trifluoromethyl)phenyl)sulfonyl)-1H-pyrrol-3-yl)picolinamide]
53 | 57.6 | O=C(Nc1ccn(S(=O)(=O)c2cc(Cl)ccc2Cl)c1)c1ccccn1 [Example 78, N-(1-((2,5-dichlorophenyl)sulfonyl)-1H-pyrrol-3-yl)picolinamide]
54 | 217 | O=C(Nc1ccn(S(=O)(=O)c2ccc(Cl)nc2)c1)c1ccccn1 [Example 118, N-(1-((6-chloropyridin-3-yl)sulfonyl)-1H-pyrrol-3-yl)picolinamide]
55 | 253 | O=C(Nc1ccn(S(=O)(=O)c2cnc3ccccc3c2)c1)c1ccccn1 [Example 136, N-(1-(quinolin-3-ylsulfonyl)-1H-pyrrol-3-yl)picolinamide]
56 | 550 | O=C(Nc1ccn(S(=O)(=O)c2ccc3[nH]c(=O)sc3c2)c1)c1ccccn1 [Example 158, N-(1-((2-oxo-2,3-dihydrobenzo[d]thiazol-6-yl)sulfonyl)-1H-pyrrol-3-yl)picolinamide]
